Laboratory results from patent US20230081426A1, “COMPOUNDS AND METHODS FOR KRAS MODULATION AND INDICATIONS THEREFOR” (Plexxikon Inc., priority 2020, published 2023).

Assays:
[1] = molecular target: T1, G12D-mutant human KRAS (amino acid residues 1-188) (Homo sapiens, UniProt P01116, G12D); assay: KRAS Binding Disruption Assay (AlphaScreen; biotinylated KRpep-2d analogue or RAF1-RBD), G12D; settings: KRAS G12D; geometric mean; read-out: KRAS GMean IC50 (uM) MUTATION: G12D
T1 construct: G12D or G12C-mutant human KRAS (amino acid residues 1-188) with FLAG tag; made in house; host or cells: E. coli
Summary of the method: (§1)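 AlphaScreen readout: signal falls as compound displaces biotinylated KRpep-2d analogue or RAF1-RBD from mutant KRAS. Both partners at 5-20 nM, 1 h binding at 25° C, then 10 μg/mL Anti-Flag acceptor and streptavidin donor beads for 1 h. IC50 by nonlinear regression of % inhibition.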

[2] = molecular target: T2, G12V-mutant human KRAS (amino acid residues 1-188) (Homo sapiens, UniProt P01116, G12V); assay: KRAS Binding Competition Assay (AlphaScreen; biotinylated KRpep-2d analogue), G12V; settings: geometric mean, read-out: KRAS GMean IC50 (uM) MUTATION: G12V
T2 construct: G12V-mutant human KRAS (amino acid residues 1-188) with FLAG tag was purified from E. coli; made in house; host or cells: E. coli

[3] = molecular target: T3, G12C-mutant human KRAS (amino acid residues 1-188) (Homo sapiens, UniProt P01116, G12C); assay: KRAS Binding Disruption Assay (AlphaScreen; biotinylated KRpep-2d analogue or RAF1-RBD), G12C; settings: geometric mean, read-out: KRAS GMean IC50 (uM) MUTATION: G12C
T3 construct: G12D or G12C-mutant human KRAS (amino acid residues 1-188) with FLAG tag; made in house; host or cells: E. coli
Summary of the method: as §1

Measured: IC50

CN1CCC[C@H]1COc1nc(N2C[C@H]3CC[C@@H](C2)N3C(=O)CC2SC(=O)NC2=O)c2cc(F)c(-c3cc(O)cc4ccccc34)c(F)c2n1 (stereo partly drawn) [P-0463, 5-(2-((1R,5S)-3-(6,8-difluoro-7-(3-hydroxynaphthalen-1-yl)-2-(((S)-1-methylpyrrolidin-2-yl)methoxy)quinazolin-4-yl)-3,8-diazabicyclo[3.2.1]octan-8-yl)-2-oxoethyl)thiazolidine-2,4-dione]
0.0001 to 10 µM: all assays above

C=CC(=O)N1[C@@H]2CC[C@H]1CN(c1nc(OC[C@@]34CCCN3C[C@H](F)C4)nc3c(F)c(-c4cc(O)cc5cccc(Cl)c45)ccc13)C2 [P-0502, 1-((1R,5S)-3-(7-(8-chloro-3-hydroxynaphthalen-1-yl)-8-fluoro-2-(((2R,7aS)-2-fluorotetrahydro-1H-pyrrolizin-7a(5H)-yl)methoxy)quinazolin-4-yl)-3,8-diazabicyclo[3.2.1]octan-8-yl)prop-2-en-1-one]
0.0001 to 10 µM: all assays above

N#CCC(=O)N1[C@@H]2CC[C@H]1CN(c1nc(OC[C@@]34CCCN3C[C@H](F)C4)nc3c(F)c(-c4cc(O)cc5cccc(Cl)c45)ccc13)C2 [P-0504, 3-((1R,5S)-3-(7-(8-chloro-3-hydroxynaphthalen-1-yl)-8-fluoro-2-(((2R,7aS)-2-fluorotetrahydro-1H-pyrrolizin-7a(5H)-yl)methoxy)quinazolin-4-yl)-3,8-diazabicyclo[3.2.1]octan-8-yl)-3-oxopropanenitrile]
0.0001 to 10 µM: all assays above

Oc1cc(-c2ccc3c(N4C[C@H]5CC[C@@H](C4)N5)nc(OC[C@@]45CCCN4C[C@H](F)C5)nc3c2F)c2c(Cl)cccc2c1 [P-0510, 4-(4-((1R,5S)-3,8-diazabicyclo[3.2.1]octan-3-yl)-8-fluoro-2-(((2R,7aS)-2-fluorotetrahydro-1H-pyrrolizin-7a(5H)-yl)methoxy)quinazolin-7-yl)-5-chloronaphthalen-2-ol]
0.0001 to 10 µM: all assays above
